Tests used:
[1] = Apparent clearance during terminal phase in 12 hr starved C57 mouse at 5 mg/kg, iv measured for 0.083 to 24 hrs post-dose by LC-MS-MS analysis; assay type: ADME, organism-based; conditions: in vivo, time 0.083-24 hrs
Mus musculus [2] = test: Antiinflammatory activity against DSS-induced C57BL/6 mouse model of acute ulcerative colitis assessed as inhibition ratio of TNF-alpha protein expression at 10 mg/kg, IG via gavage measured after 7 days by ELISA relative to control; assay type: functional; set-up: scale not given: the % may be the effect or the level left; conditions: time 7 day
[3] = Inhibition of MKK3-p38-elF4E signaling pathway in mouse RAW264.7 cells assessed as inhibition of LPS-induced MKK3 phosphorylation; assay type: cell-based
Mus musculus [4] = test: Antiinflammatory activity against DSS-induced C57BL/6 mouse model of acute ulcerative colitis assessed as inhibition of TNF-alpha mRNA expression in colon tissue administered intragastrically via gavage measured after 7 days by RT-qPCR analysis; assay type: functional, organism-based; conditions: route ig, time 7.0 day, DDE = dose-dependent effect
Mus musculus [5] = test: Antiinflammatory activity against IL-10-/- C57BL/6 mouse model of acute ulcerative colitis assessed as decrease in serum TNF-alpha levels administered intragastrically via gavage measured after 8 weeks by ELISA; assay type: functional, organism-based; conditions: dose 3-10 mg/kg, route ig, DDE = dose-dependent effect
Mus musculus [6] = test: Antiinflammatory activity against DSS-induced C57BL/6 mouse model of acute ulcerative colitis assessed as inhibition ratio of IL-6 mRNA expression in colon tissue at 3 mg/kg, IG via gavage measured after 7 days by RT-qPCR analysis relative to control; assay type: functional; set-up: scale not given: the % may be the effect or the level left; conditions: time 7 day
Mus musculus [7] = test: Antiinflammatory activity against DSS-induced C57BL/6 mouse model of acute ulcerative colitis assessed as inhibition of IL-6 mRNA expression in colon tissue administered intragastrically via gavage measured after 7 days by RT-qPCR analysis; assay type: functional, organism-based; conditions: route ig, time 7.0 day, DDE = dose-dependent effect
Mus musculus [8] = test: Anti-ulcerative colitis activity in IL-10-/- C57BL/6 mouse model of ulcerative colitis assessed as body weight recovery ratio at 3 mg/kg, IG via gavage for 8 weeks and measured everyday relative to control; assay type: functional
Mus musculus [9] = test: Antiinflammatory activity against DSS-induced C57BL/6 mouse model of acute ulcerative colitis assessed as inhibition ratio of IL-1beta protein expression at 3 mg/kg, IG via gavage measured after 7 days by ELISA relative to control; assay type: functional; set-up: scale not given: the % may be the effect or the level left; conditions: time 7 day
Mus musculus [10] = test: Antiinflammatory activity against IL-10-/- C57BL/6 mouse model of ulcerative colitis assessed as inhibition ratio of IL-6 mRNA expression in colon tissue at 10 mg/kg, IG via gavage and measured after 8 weeks by RT-qPCR analysis relative to control; assay type: functional; set-up: scale not given: the % may be the effect or the level left
Mus musculus [11] = test: Antiinflammatory activity against DSS-induced C57BL/6 mouse model of acute ulcerative colitis assessed as inhibition ratio of IL-6 mRNA expression in colon tissue at 1 mg/kg, IG via gavage measured after 7 days by RT-qPCR analysis relative to control; assay type: functional; set-up: scale not given: the % may be the effect or the level left; conditions: time 7 day
Mus musculus [12] = test: Antiinflammatory activity against IL-10-/- C57BL/6 mouse model of ulcerative colitis assessed as inhibition ratio of IL-6 protein expression at 1 mg/kg, IG via gavage and measured after 8 weeks by ELISA relative to control; assay type: functional; set-up: scale not given: the % may be the effect or the level left
[13] = Metabolic stability in dog liver microsomes assessed as intrinsic clearance at […] measured upto 60 mins in presence of NADPH by HPLC-MS analysis; assay type: ADME, Canis lupus familiaris, Microsome; set-up: dose or concentration left out as unconfirmed; conditions: 1 h
Mus musculus [14] = test: Antiinflammatory activity against IL-10-/- C57BL/6 mouse model of ulcerative colitis assessed as inhibition ratio of IL-1beta mRNA expression in colon tissue at 3 mg/kg, IG via gavage and measured after 8 weeks by RT-qPCR analysis relative to control; assay type: functional; set-up: scale not given: the % may be the effect or the level left
Mus musculus [15] = test: Antiinflammatory activity against IL-10-/- C57BL/6 mouse model of ulcerative colitis assessed as inhibition ratio of IL-23 protein expression at 3 mg/kg, IG via gavage and measured after 8 weeks by ELISA relative to control; assay type: functional; set-up: scale not given: the % may be the effect or the level left
Mus musculus [16] = test: Antiinflammatory activity against IL-10-/- C57BL/6 mouse model of ulcerative colitis assessed as inhibition ratio of IL-23 mRNA expression in colon tissue at 10 mg/kg, IG via gavage and measured after 8 weeks by RT-qPCR analysis relative to control; assay type: functional; set-up: scale not given: the % may be the effect or the level left
[17] = Toxicity in C57 mouse assessed as heart damage at 50 to 500 mg/kg, po administered daily for 14 days; assay type: organism-based; conditions: in vivo, 336 h, dose 50-500 mg/kg, time 14 day
Mus musculus [18] = test: Antiinflammatory activity against DSS-induced C57BL/6 mouse model of acute ulcerative colitis assessed as reduction in serum TNF-alpha levels administered intragastrically via gavage measured after 7 days by ELISA; assay type: functional, organism-based; conditions: dose 1-10 mg/kg, route ig, time 7.0 day, DDE = dose-dependent effect
P-gp (human) = test: Efflux ratio of apparent permeability in dog MDCK-MDR1 cells transfected with human P-gp; assay type: ADME, cell-based, Canis lupus familiaris
[19] = Metabolic stability in mouse liver microsomes assessed as intrinsic clearance; assay type: ADME, Microsome
Mus musculus [20] = test: Antiinflammatory activity against IL-10-/- C57BL/6 mouse model of ulcerative colitis assessed as inhibition ratio of TNF-alpha protein expression at 1 mg/kg, IG via gavage and measured after 8 weeks by ELISA relative to control; assay type: functional; set-up: scale not given: the % may be the effect or the level left
Mus musculus [21] = test: Antiinflammatory activity against IL-10-/- C57BL/6 mouse model of ulcerative colitis assessed as inhibition ratio of IL-6 mRNA expression in colon tissue at 3 mg/kg, IG via gavage and measured after 8 weeks by RT-qPCR analysis relative to control; assay type: functional; set-up: scale not given: the % may be the effect or the level left
[22] = Apparent volume of distribution in 12 hr starved C57 mouse at 30 mg/kg, po measured for 0.083 to 24 hrs post-dose by LC-MS-MS analysis; assay type: ADME, organism-based; conditions: in vivo, time 0.083-24 hrs
[23] = n-Octanol/water partition coefficient, logP of the compound incubated for 24 hrs by HPLC analysis; assay type: physicochemical
Mus musculus [24] = test: Antiinflammatory activity against IL-10-/- C57BL/6 mouse model of ulcerative colitis assessed as inhibition ratio of TNF-alpha mRNA expression in colon tissue at 10 mg/kg, IG via gavage and measured after 8 weeks by RT-qPCR analysis relative to control; assay type: functional; set-up: scale not given: the % may be the effect or the level left
Mus musculus [25] = test: Antiinflammatory activity against DSS-induced C57BL/6 mouse model of acute ulcerative colitis assessed as inhibition ratio of IL-6 protein expression at 3 mg/kg, IG via gavage measured after 7 days by ELISA relative to control; assay type: functional; set-up: scale not given: the % may be the effect or the level left; conditions: time 7 day
[26] = Tmax in 12 hr starved C57 mouse at 30 mg/kg, po measured for 0.083 to 24 hrs post-dose by LC-MS-MS analysis; assay type: ADME, organism-based; conditions: in vivo, time 0.083-24 hrs
Mus musculus [27] = test: Antiinflammatory activity against IL-10-/- C57BL/6 mouse model of ulcerative colitis assessed as inhibition ratio of IL-6 mRNA expression in colon tissue at 1 mg/kg, IG via gavage and measured after 8 weeks by RT-qPCR analysis relative to control; assay type: functional; set-up: scale not given: the % may be the effect or the level left
Mus musculus [28] = test: Antiinflammatory activity against DSS-induced C57BL/6 mouse model of acute ulcerative colitis assessed as reduction in serum IL-1beta levels administered intragastrically via gavage measured after 7 days by ELISA; assay type: functional, organism-based; conditions: dose 1-10 mg/kg, route ig, time 7.0 day, DDE = dose-dependent effect
Mus musculus [29] = test: Antiinflammatory activity against DSS-induced C57BL/6 mouse model of acute ulcerative colitis assessed as inhibition ratio of IL-6 mRNA expression in colon tissue at 10 mg/kg, IG via gavage measured after 7 days by RT-qPCR analysis relative to control; assay type: functional; set-up: scale not given: the % may be the effect or the level left; conditions: time 7 day

## COc1ccc([C@H]2CC(=O)c3cc(OC)cc(OC)c32)cc1
[1]
  CLz/F: 9.67 mL/min/kg
Mus musculus [2]
  Activity: 58.1%
[3]
  IC50: 4 µM
Mus musculus [4]
  Activity: Dde
Mus musculus [5]
  Activity: Dde
Mus musculus [6]
  Activity: 68%
Mus musculus [7]
  Activity: Dde
Mus musculus [8]
  Activity: 14.8%
Mus musculus [9]
  Activity: 60.8%
Mus musculus [10]
  Activity: 48.6%
Mus musculus [11]
  Activity: 32.8%
Mus musculus [12]
  Activity: 31.4%
[13]
  CLH: 121.4 mL/min/g
Mus musculus [14]
  Activity: 36.1%
Mus musculus [15]
  Activity: 58.2%
Mus musculus [16]
  Activity: 58.2%
[17]
  Activity: Non-Toxic
Mus musculus [18]
  Activity: Dde
P-gp (human)
  efflux ratio: 0.33
[19]
  CLH: 1730.2 mL/min/g
Mus musculus [20]
  Activity: 40.2%
Mus musculus [21]
  Activity: 37.1%
[22]
  Vz: 3.68 L/kg
[23]
  logP at 24 h: 2.01
Mus musculus [24]
  Activity: 68.5%
Mus musculus [25]
  Activity: 53.5%
[26]
  Tmax: 4.98 min
Mus musculus [27]
  Activity: 26.3%
Mus musculus [28]
  Activity: Dde
Mus musculus [29]
  Activity: 76%
